This is an account of results in publication PMC7277448, “Discovery of Hordenine as a Potential Inhibitor of Pyruvate Dehydrogenase Kinase 3: Implication in Lung Cancer Therapy” (Biomedicines, 2020).

“And” between values parts separate entries of the source, which are not always exact repeats. Equal values may be shown once.

The target in data set [1] is T1, PDK3 (Homo sapiens, UniProt Q15120).
T1 construct: made in house
The experiment in a line: Fluorescence binding (quenching, modified Stern-Volmer). The conditions noted are these: PDK3 4 μM, modified Stern-Volmer equation; read-out: Binding constant (K) from fluorescence studies (converted). The protocol:
The binding affinity of ligands to PDK3 was analyzed by monitoring changes in the fluorescence emission intensity of protein [33]. Fluorescence measurements were carried out on the Jasco spectrofluorimeter (FP-6200, Japan). The experimental parameters were, λexc as 280 nm and λem in the range of 300–400 nm with slit width: 10 nm and medium sensitivity. All the measurements were carried out in triplicates and blank subtracted spectra were reported. The observed fluorescence values were corrected for the inner filter effect. Protein was titrated with an increasing concentration of ligands and each titration of protein. A decrease in the fluorescence intensity was mathematically evaluated using the modified Stern-Volmer equation [35] to estimate the binding parameters for hordenine-PDK3 interaction.
To measure the actual binding affinity of hordenine to PDK3, fluorescence binding studies were performed as described. […] The decrease in fluorescence intensity was mathematically analyzed using a double log relation (modified Stern−Volmer equation) to find the value of binding constant (K).

For data set [2], the target named is T1, PDK3. Briefly: Enzyme inhibition assay (ATPase, malachite green). The conditions noted are these: ATP 200 µM, PDK3 4 µM, 25 °C, 1 h; AAT Bioquest calculator. In kind it is biochemical. As to the method:
Following our published protocols, an enzyme inhibition assay was carried out. Freshly prepared ATP (200 µM) was added to PDK3 (4 µM) and final reaction mixture of 100 μL was incubated at 25 °C for 1 h. Malachite green (200 μL) was further added to the reaction mixture to stop the reaction followed by incubation of samples at room temperature for 20–25 min for the development of color. From the final reaction mixture, 100 μL was transferred to a 96-well plate in triplicate to measure spectrophotometrically at 620 nm.
To further validate our fluorescence-based binding studies, an enzyme inhibition assay was carried out with increasing concentrations of hordenine to check the kinase inhibitory potential. The kinase activity was quantified and plotted as percent inhibition. The kinase activity of PDK3 alone was taken as 100% for reference. It is clear from Figure 5 that with an increasing concentration of hordenine (0–13.75 µM), there was a dose-dependent decrease in PDK3 activity.

Data set [3] deals with T1, PDK3. Briefly: Isothermal titration calorimetry. In kind it is binding. The conditions noted are these: ITC 25 °C. As to the method: ITC measurements were carried out at 25 °C on a VP-ITC microcalorimeter from MicroCal, Inc (GE, MicroCal, Northampton, MA, USA). The purified protein was extensively dialyzed and degassed before use to avoid the bubble problem. DMSO was added in an equal amount to the protein solution (1% v/v) to prevent signal stability problems during ITC measurements. The first injection was a false one (2 μL) and then successive injections of 10 μL followed by the initial false injection. The sample cell contained PDK3 while the syringe was filled with the hordenine. Data analysis was carried out using the attached MicroCal Origin 8.0. The values (Ka, ΔH, ΔS) were calculated after curve fitting as described in our previous communications.
Thermodynamic parameters associated with the interaction of hordenine to PDK3 were measured by ITC as described. […] Various studies report different values of thermodynamic parameters obtained from fluorescence spectroscopy and ITC and this is because ITC measures a global change in the thermodynamic properties while fluorescence spectroscopy takes into account only the local changes around the fluorophore (Trp214). In the upper panel, raw data with negative heat pulses is shown which confirms exothermic binding. Binding curves found after subtraction of dilution heat of both ligands and protein are depicted in the bottom section. The obtained ITC isotherm advocates the spontaneous binding of hordenine with PDK3. The results presented were obtained from four site model fitting and thermodynamic parameters obtained for this interaction are presented in Table 1.

For data set [4], the system named is A549 cells. The experiment in a line: MTT cell viability assay, A549. In kind it is cell-based. The conditions noted are these: Homo sapiens, 48 h, 0–200 μM, read-out: IC50, growth inhibition of A549 cells. As to the method:
(§1) Cell cultures of H1299 and A549 cells were respectively maintained in RPMI-1640 and F12K cell growth medium, while HEK293 cells were maintained in DMEM (having 10% heat-inactivated FBS and 1% antibiotic-antimycotic solution) in a humidified CO2 incubator (5% CO2, 37 °C). These lung cancer cell lines were selected based on previous reports related to PDK3 [49]. Hordenine was evaluated for cell growth inhibition potential using the MTT assay as described. Briefly, the selected cells were plated in a 96-well culture plate (6000–7000 cells/well), and after 24 h cells were incubated with hordenine (0–200 μM) for 48 h. Following 48 h incubation of cells with hordenine, 25 µL MTT (from 5 mg/mL stock) was added and incubated for 4–5 h at 37 °C in a CO2 incubator. The resultant formazan was dissolved in 100 µL of DMSO and the absorbance was measured at 570 nm using a multiplate ELISA reader (BioRad). The percentage of cell viabilities was estimated using absorbance data and plotted as a function of hordenine concentration. Respective DMSO treatment was taken as vehicle control and subtracted from corresponding hordenine treatment groups, whereas for anticancer studies paclitaxel has been taken as a positive control.
Background: Tetrazolium dyes change colour on reduction, which living cells bring about.

Data set [5] has as its system H1299 cells. Briefly: MTT cell viability assay, H1299. In kind it is cell-based. The conditions noted are these: Homo sapiens, NCI-H1299, 48 h, 0–200 μM, read-out: IC50, growth inhibition of H1299 cells. As to the method: as §1
Data set [6] deals with HEK293 cells. The experiment in a line: MTT cytotoxicity assay, HEK293. In kind it is cell-based, human. The conditions noted are these: 48 h, concentration range 0–200 μM. The protocol: as §1

T1 sequence (Q15120 whole entry): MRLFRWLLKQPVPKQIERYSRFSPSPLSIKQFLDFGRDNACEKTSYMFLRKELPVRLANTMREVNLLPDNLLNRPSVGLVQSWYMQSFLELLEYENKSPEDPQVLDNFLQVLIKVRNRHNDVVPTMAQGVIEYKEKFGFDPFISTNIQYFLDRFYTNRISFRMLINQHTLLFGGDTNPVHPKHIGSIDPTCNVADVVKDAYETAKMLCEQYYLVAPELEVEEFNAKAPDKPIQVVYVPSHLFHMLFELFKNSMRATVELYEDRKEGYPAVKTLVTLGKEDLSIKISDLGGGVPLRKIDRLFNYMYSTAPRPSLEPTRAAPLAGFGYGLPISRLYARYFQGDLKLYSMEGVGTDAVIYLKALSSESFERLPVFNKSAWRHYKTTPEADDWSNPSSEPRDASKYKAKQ

One may read the IC50 as the midpoint of a concentration-inhibition curve. Turning to `CN(C)CCc1ccc(O)cc1` [hordenine, Hordenine], the Kd in data set [1] is 1 µM and 2 µM; in data set [3] (500 µM hordenine into 15 µM PDK3, four site model, site 1, read-out: Ka1 (Association Constant)), 51.3 µM; in data set [3] (four site model, site 2, read-out: Ka2 (Association Constant)), 10.8 µM; in data set [3] (four site model, site 3, read-out: Ka3 (Association Constant)), 19.6 µM; in data set [3] (four site model, site 4 (printed Ka3), read-out: Ka3 (Association Constant), fourth line of the table), 400 µM. The IC50 in data set [2] is 5.4 µM; in data set [4] it was 15 ± 2.13 µM; in data set [5], 21.3 ± 1.99 µM. Moreover, in data set [3] (four site model, site 1), the “∆H1 (Enthalpy Change)” value was “∆H1 = 4151 ± 1.2 × 10^3 cal/mol”. Also, the “∆S1” value in data set [3] (four site model, site 1) is recorded as “∆S1 = 33.5 cal/mol/deg”. The “∆H2 (Enthalpy Change)” value in data set [3] (four site model, site 2) is listed as “∆H2 = −5.11 × 10^4 ± 4.18 × 10^3 cal/mol”. The “∆S2” value in data set [3] (four site model, site 2) is reported as “∆S2 = −149 cal/mol/deg”. Moreover, the “∆H3 (Enthalpy Change)” value in data set [3] (four site model, site 3) is on record as “∆H3 = 3.75 × 10^4 ± 5.20 × 10^3 cal/mol”. Moreover, in data set [3] (four site model, site 3), the “∆S3” value is “∆S3 = 147 cal/mol/deg”. The “∆H4 (Enthalpy Change)” value in data set [3] (four site model, site 4) is listed as “∆H4 = −2.33 × 10^5 ± 1.03 × 10^4 cal/mol”. Also, the “∆S4” value in data set [3] (four site model, site 4) is listed as “∆S4 = −767 cal/mol/deg”. Besides, the “Growth inhibition / cytotoxicity on HEK293 cells” value in data set [6] is recorded as “did not inhibit the growth of HEK293 cells”.
